Experimental data: PubChem BioAssay (NCI)
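Results reflect a 48-hour exposure of cells in 96-well plates to compound at five concentrations. GI50 is the concentration that inhibits growth by half. Definition used: TGI = concentration required for complete inhibition of growth.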

Tests used:
Test in all cases: growth of human tumour cells (NCI), 48 h
DU-145 prostate = system: DU-145 prostate
HL-60(TB) leukemia = system: HL-60(TB) leukemia
OVCAR-4 ovarian = system: OVCAR-4 ovarian
OVCAR-3 ovarian = system: OVCAR-3 ovarian
A549 NSCLC = system: A549 NSCLC
PC-3 prostate = system: PC-3 prostate
UACC-257 melanoma = system: UACC-257 melanoma
CAKI-1 renal = system: CAKI-1 renal
OVCAR-8 ovarian = system: OVCAR-8 ovarian
SW-620 colon = system: SW-620 colon
SNB-19 CNS = system: SNB-19 CNS
SF-539 CNS = system: SF-539 CNS
RXF 393 renal = system: RXF 393 renal
SF-295 CNS = system: SF-295 CNS
NCI-H460 lung = system: NCI-H460 lung
SNB-75 CNS = system: SNB-75 CNS
UACC-62 melanoma = system: UACC-62 melanoma
RPMI-8226 leukemia = system: RPMI-8226 leukemia
SN12C renal = system: SN12C renal
SK-MEL-28 melanoma = system: SK-MEL-28 melanoma
NCI-H226 lung = system: NCI-H226 lung
M14 melanoma = system: M14 melanoma
HCT-116 colon = system: HCT-116 colon
786-0 renal = system: 786-0 renal
NCI-H23 lung = system: NCI-H23 lung
TK-10 renal = system: TK-10 renal
ACHN renal = system: ACHN renal
MOLT-4 leukemia = system: MOLT-4 leukemia
HCT-15 colon = system: HCT-15 colon
MALME-3M melanoma = system: MALME-3M melanoma
LOX IMVI melanoma = system: LOX IMVI melanoma
U251 CNS = system: U251 CNS
A498 renal = system: A498 renal
MDA-MB-231 breast = system: MDA-MB-231 breast
NCI/ADR-RES ovarian = system: NCI/ADR-RES ovarian
SK-MEL-2 melanoma = system: SK-MEL-2 melanoma
OVCAR-5 ovarian = system: OVCAR-5 ovarian
SK-OV-3 ovarian = system: SK-OV-3 ovarian
HCC-2998 colon = system: HCC-2998 colon
MDA-MB-435 = system: MDA-MB-435
KM12 colon = system: KM12 colon
NCI-H522 lung = system: NCI-H522 lung
MCF7 breast = system: MCF7 breast
UO-31 renal = system: UO-31 renal
T-47D breast = system: T-47D breast
BT-549 breast = system: BT-549 breast
CCRF-CEM leukemia = system: CCRF-CEM leukemia
HT29 colon = system: HT29 colon
K-562 leukemia = system: K-562 leukemia
SK-MEL-5 melanoma = system: SK-MEL-5 melanoma

COc1cc(OC)cc(-c2ccc(-c3ccc(C(=N)N)cc3)s2)c1 gave a GI50 (DU-145 prostate) of 1.77 µM, a TGI (DU-145 prostate) of 3.24 µM and a GI50 (HL-60(TB) leukemia) of 1.9 µM. The TGI (HL-60(TB) leukemia) was 3.74 µM.

With COc1cc(/C=C/c2cc(/C=C/c3ccc(O)c(OC)c3)n(C(=O)Cc3ccccc3)n2)ccc1O the GI50 (DU-145 prostate) was 1.48 µM, the TGI (DU-145 prostate) was 8.63 µM and the GI50 (OVCAR-4 ovarian) was 1.11 µM. It also gave a TGI (OVCAR-4 ovarian) of 6.39 µM, a GI50 (OVCAR-3 ovarian) of 1.12 µM and a TGI (OVCAR-3 ovarian) of 5.27 µM. It also gave a GI50 (A549 NSCLC) of 2.8 µM, a TGI (A549 NSCLC) of 16.6 µM and a GI50 (PC-3 prostate) of 0.915 µM. It also gave a TGI (PC-3 prostate) of 4.34 µM, a GI50 (UACC-257 melanoma) of 2.68 µM and a TGI (UACC-257 melanoma) of 11.5 µM. It also gave a GI50 (CAKI-1 renal) of 0.73 µM, a TGI (CAKI-1 renal) of 38.4 µM and a GI50 (OVCAR-8 ovarian) of 1.85 µM. The TGI (OVCAR-8 ovarian) was 16.7 µM, the GI50 (SW-620 colon) was 0.684 µM and the TGI (SW-620 colon) was 10.9 µM. For the same compound, the GI50 (SNB-19 CNS) was 2.43 µM, the TGI (SNB-19 CNS) was > 100 µM and the GI50 (SF-539 CNS) was 0.475 µM. For the same compound, the TGI (SF-539 CNS) was 3.91 µM, the GI50 (RXF 393 renal) was 1.14 µM and the TGI (RXF 393 renal) was 3.48 µM. It also gave a GI50 (SF-295 CNS) of 2.01 µM, a TGI (SF-295 CNS) of 6.48 µM and a GI50 (NCI-H460 lung) of 0.526 µM. It also gave a TGI (NCI-H460 lung) of 10.4 µM, a GI50 (SNB-75 CNS) of 0.545 µM and a TGI (SNB-75 CNS) of 3.45 µM. For the same compound, the GI50 (UACC-62 melanoma) was 0.883 µM, the TGI (UACC-62 melanoma) was 4.76 µM and the GI50 (RPMI-8226 leukemia) was 0.411 µM. It also gave a TGI (RPMI-8226 leukemia) of 2.24 µM, a GI50 (SN12C renal) of 1.53 µM and a TGI (SN12C renal) of 44.5 µM. For the same compound, the GI50 (SK-MEL-28 melanoma) was 1.21 µM, the TGI (SK-MEL-28 melanoma) was 15.1 µM and the GI50 (NCI-H226 lung) was 2.67 µM. For the same compound, the TGI (NCI-H226 lung) was 9.88 µM, the GI50 (M14 melanoma) was 0.399 µM and the TGI (M14 melanoma) was 2.64 µM. The GI50 (HCT-116 colon) was 0.491 µM, the TGI (HCT-116 colon) was 6.76 µM and the GI50 (786-0 renal) was 0.916 µM. The TGI (786-0 renal) was 4.53 µM, the GI50 (NCI-H23 lung) was 1.56 µM and the TGI (NCI-H23 lung) was 6.59 µM. For the same compound, the GI50 (TK-10 renal) was 2.58 µM, the TGI (TK-10 renal) was 9.09 µM and the GI50 (ACHN renal) was 0.419 µM. For the same compound, the TGI (ACHN renal) was 29.2 µM, the GI50 (MOLT-4 leukemia) was 0.464 µM and the TGI (MOLT-4 leukemia) was > 100 µM. The GI50 (HCT-15 colon) was 0.388 µM, the TGI (HCT-15 colon) was 3.79 µM and the GI50 (MALME-3M melanoma) was 0.644 µM. It also gave a TGI (MALME-3M melanoma) of 4.98 µM, a GI50 (LOX IMVI melanoma) of 0.609 µM and a TGI (LOX IMVI melanoma) of 9.02 µM. It also gave a GI50 (U251 CNS) of 1.21 µM, a TGI (U251 CNS) of 11.2 µM and a GI50 (A498 renal) of 2.41 µM. For the same compound, the TGI (A498 renal) was 6.93 µM, the GI50 (MDA-MB-231 breast) was 1.45 µM and the TGI (MDA-MB-231 breast) was 20.9 µM. For the same compound, the GI50 (NCI/ADR-RES ovarian) was 0.792 µM, the TGI (NCI/ADR-RES ovarian) was 10.9 µM and the GI50 (SK-MEL-2 melanoma) was 0.516 µM. It also gave a TGI (SK-MEL-2 melanoma) of 2.51 µM, a GI50 (OVCAR-5 ovarian) of 2.77 µM and a TGI (OVCAR-5 ovarian) of 80 µM. The GI50 (SK-OV-3 ovarian) was 0.69 µM, the TGI (SK-OV-3 ovarian) was 2.64 µM and the GI50 (HCC-2998 colon) was 2.9 µM. It also gave a TGI (HCC-2998 colon) of 11.3 µM, a GI50 (MDA-MB-435) of 0.218 µM and a TGI (MDA-MB-435) of 0.587 µM. For the same compound, the GI50 (KM12 colon) was 0.461 µM, the TGI (KM12 colon) was > 100 µM and the GI50 (NCI-H522 lung) was 0.323 µM. It also gave a TGI (NCI-H522 lung) of 1.49 µM, a GI50 (MCF7 breast) of 0.333 µM and a TGI (MCF7 breast) of 2.52 µM. The GI50 (UO-31 renal) was 0.466 µM, the TGI (UO-31 renal) was 4.31 µM and the GI50 (T-47D breast) was 1.33 µM. It also gave a TGI (T-47D breast) of 5.17 µM, a GI50 (BT-549 breast) of 0.758 µM and a TGI (BT-549 breast) of 3.93 µM. For the same compound, the GI50 (CCRF-CEM leukemia) was 0.333 µM, the TGI (CCRF-CEM leukemia) was > 100 µM and the GI50 (HT29 colon) was 1.66 µM. For the same compound, the TGI (HT29 colon) was 4.5 µM, the GI50 (K-562 leukemia) was 0.434 µM and the TGI (K-562 leukemia) was > 100 µM. For the same compound, the GI50 (SK-MEL-5 melanoma) was 0.532 µM and the TGI (SK-MEL-5 melanoma) was 3.17 µM.
